Laboratory results from publication PMC11284787, “Ligand-Directed Labeling of the Adenosine A1 Receptor in Living Cells” (Journal of Medicinal Chemistry, 2024).

What was measured:
rat NL-A1AR = tested on: T1, rat NL-A1AR; test: NanoBRET dissociation kinetics, rat NL-A1AR HEK293 cells; assay type: binding; conditions: rat NL-A1AR HEK293 cells prelabeled with 250 nM, 10 μM DPCPX
T1 construct: expressed in transfected cells
Description: Figure 3 Molecular pharmacology and biochemical characterization of 11 and 12. NanoBRET ligand-binding data were measured in HEK293 cells stably expressing the human NL-A1AR (A–C) or rat NL-A1AR (D–F). […] Data were normalized to maximal BRET signals in the absence of unlabeled competing ligands (total binding, TB). (C, F) NanoBRET dissociation kinetics experiments with 11 (SulfoCy5) performed in human and rat NL-A1AR HEK293T cells, respectively. Cells were treated with 250 nM 11 (SulfoCy5, lilac open circles) for 5 h and CA200645 (black open triangles) for 2 h. […] Each data point represents the combined mean ± SEM from n = 5 (A, C), n = 4 (B, D), and n = 3 (E, F) experiments, each one performed in triplicate. (G) HEK293G cells stably expressing TS-SNAP-A1AR were treated with 300 nM 11 or 130 nM 12 in serum-free media for 2 h at 37 °C and 5% CO2. For samples treated with compound 12, the labeling solution was removed and immediately replaced with 10 mL of serum-free media containing 1 μM Met-Tet-Cy5 and incubated at 37 °C and 5% CO2 for a further 15 min. Untreated cells were used as a control. TS-SNAP-A1AR was purified and separated on an SDS-PAGEgel gel, and direct Cy5 fluorescence was visualized using in-gel fluorescence. The gel shown is representative of three independent experiments. […]
37 °C for kinetic binding experiments. Emissions were read at 420 nm (80 nm bandpass; […]

[1] = tested on: T2, endogenously expressed A1AR in DRG neurons; test: Live-cell confocal imaging of dorsal root ganglion (DRG) neurons; assay type: cell-based, rat
T2 construct: supporting the potential of the probe for selectively labeling endogenously expressed A1ARs; from tissue; host or cells: primary dorsal root ganglion neurons from adult male Sprague-Dawley rats
Description: Finally, we evaluated the utility of ligand-directed probe 11 to selectively label and visualize the localization and distribution of endogenously expressed A1AR in a physiologically relevant system. Studies have shown that activation of A1ARs expressed on peripheral nociceptive neurons produces analgesic effects,[14],[17],[71] thereby supporting the clinical potential of targeting the A1ARs for the treatment of neuropathic pain. Dorsal root ganglion (DRG) neurons are sensory cells involved in the transmission of pain and they are reported to express the A1AR[72]−[75] along with its cognate adenosine A2AAR[76]−[78] and A3AR[74],[79] receptor subtypes.
Figure 9 Live-cell confocal imaging of dorsal root ganglion (DRG) neurons labeled with SulfoCy5 by ligand-directed chemistry using probe 11 (250 nM). […] Left-hand side frames represent the SulfoCy5 channel, middle frames represent brightfield and right-hand side frames represent merged images from both channels. Images are representative of images acquired in four independent experiments. Scale bar: 10 μm. […]
plates (Nunc Lab-Tek, Thermo Fischer Scientific), pre-coated with Poly-D-Lysine, at 20,000 cells per well in DMEM/10% FCS. 24 h post seeding, cells were transiently transfected with human SNAP-A1. Transient transfections were carried out following manufacturer’s protocol: used FuGENE (Promega) HD at 3:1 ratio of reagent to cDNA with a total of 300 ng cDNA per well. Transfection solutions were made up in Gibco Opti-MEM (Thermo Fischer Scientific), incubated at RT for 5 min and added as 11 µL per well. Cells were incubated for additional 24 h at 37 OC, 5% CO2. Transient Transfection of NanoLuc-tagged human A 2AAR in HEK293T cell line was carried out as follows: 72 h prior to the experiment cells were removed from a confluent T75 flask and centrifuged. The pellet of cells was resuspended in 10 mL of fresh complete DMEM. […]

CCCCn1c(=O)c2[nH]c(C34CCC(C(=O)NCCNC(=O)CCNC(=O)c5ccc(OC(=O)CCCCC[N+]6=C(/C=C/C=C/C=C7/N(C)c8ccc(S(=O)(=O)O)cc8C7(C)C)C(C)(C)c7cc(S(=O)(=O)[O-])ccc76)c(F)c5)(CC3)CC4)nc2n(CCCC)c1=O [Compound 11, 1-(6-(4-((3-((2-(4-(1,3-Dibutyl-2,6-dioxo-2,3,6,7-tetrahydro-1H-purin-8-yl)bicyclo[2.2.2]octane-1-carboxamido)ethyl)amino)-3-oxopropyl)carbamoyl)-2-fluorophenoxy)-6-oxohexyl)-3,3-dimethyl-2-((1E,3E)-5-((E)-1,3,3-trimethyl-5-sulfoindolin-2-ylidene)penta-1,3-dien-1-yl)-3H-indol-1-ium-5-sulfonate]
ability to covalently transfer the fluorophore to the A1AR (dissociation experiment) (rat NL-A1AR): could be retained across species | labeling of live DRG neurons ([1]; 250 nM, 2 h, adult Sprague-Dawley rat DRG): SulfoCy5-labeling | labeling of DRG neurons after pretreatment with ZM241385 ([1]; 10 μM A2AAR-selective antagonist ZM241385): did not prevent the SulfoCy5 labeling | fluorescence in DRG neurons after pretreatment with DPCPX ([1]; 10 μM DPCPX pretreatment): negligible fluorescence signal
